Measurements as given in ChEMBL document CHEMBL1201862, “PubChem BioAssay data set” (2004).
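In this assay, cells in 96-well plates receive the compound at five concentrations for 48 hours. Endpoints are linearly interpolated between the surrounding concentrations. Abbreviation: GI50, concentration required for 50% inhibition of growth.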 Activity calls are given as the source filed them. Cut-off read from the data, not from the text of the source: active = GI50 up to about 1.1 µM and inactive = higher.

Key:
Experiment in all cases: NCI-60 cell line screen, 48 h
SNB-75 = tested on: SNB-75
MOLT-4 = tested on: MOLT-4
786-0 = tested on: 786-0
NCI-H522 = tested on: NCI-H522
CCRF-CEM = tested on: CCRF-CEM
RPMI-8226 = tested on: RPMI-8226
MDA-N = tested on: MDA-N
COLO 205 = tested on: COLO 205
IGROV-1 = tested on: IGROV-1
HOP-62 = tested on: HOP-62
HCT-15 = tested on: HCT-15
UACC-257 = tested on: UACC-257
SF-295 = tested on: SF-295
SK-MEL-28 = tested on: SK-MEL-28
SK-MEL-5 = tested on: SK-MEL-5
HL-60 = tested on: HL-60
SF-268 = tested on: SF-268
MDA-MB-435 = tested on: MDA-MB-435
PC-3 = tested on: PC-3
SF-539 = tested on: SF-539
NCI-H460 = tested on: NCI-H460
DU-145 = tested on: DU-145
EKVX = tested on: EKVX
HCT-116 = tested on: HCT-116
OVCAR-4 = tested on: OVCAR-4
CAKI-1 = tested on: CAKI-1
RXF 393 = tested on: RXF 393
BT-549 = tested on: BT-549
M14 = tested on: M14
NCI-H226 = tested on: NCI-H226
UO-31 = tested on: UO-31
OVCAR-5 = tested on: OVCAR-5
OVCAR-3 = tested on: OVCAR-3
Malme-3M = tested on: Malme-3M
KM12 = tested on: KM12
K562 = tested on: K562
NCI/ADR-RES = tested on: NCI/ADR-RES
SNB-19 = tested on: SNB-19
TK-10 = tested on: TK-10
SN12C = tested on: SN12C
MDA-MB-231 = tested on: MDA-MB-231
HCC 2998 = tested on: HCC 2998
MCF7 = tested on: MCF7
OVCAR-8 = tested on: OVCAR-8
SW-620 = tested on: SW-620
U-251 = tested on: U-251
ACHN = tested on: ACHN
UACC-62 = tested on: UACC-62
HOP-92 = tested on: HOP-92
T47D = tested on: T47D
NCI-H23 = tested on: NCI-H23
LOX IMVI = tested on: LOX IMVI
SR = tested on: SR
HT-29 = tested on: HT-29
SK-MEL-2 = tested on: SK-MEL-2
A549 = tested on: A549
A498 = tested on: A498
Hs-578T = tested on: Hs-578T
SK-OV-3 = tested on: SK-OV-3

In the case of `COc1ccccc1C1CC(=O)CC(c2ccccc2OC)C12C(=O)NC(=S)NC2=O` (stereo not drawn), the GI50 (SNB-75) is reported as 56 µM (inactive), the GI50 (MOLT-4) is reported as 35.7 µM (inactive) and the GI50 (786-0) is reported as > 100 µM (inactive). The GI50 (NCI-H522) was 51.3 µM (inactive), the GI50 (CCRF-CEM) was 46.6 µM (inactive) and the GI50 (RPMI-8226) was 19.9 µM (inactive). The GI50 (MDA-N) was 18.2 µM (inactive), the GI50 (COLO 205) was 32.6 µM (inactive) and the GI50 (IGROV-1) was 68.9 µM (inactive). The GI50 (HOP-62) was > 100 µM (inactive), the GI50 (HCT-15) was 42.5 µM and the GI50 (UACC-257) was 88.3 µM (inactive). The GI50 (SF-295) was > 100 µM (inactive), the GI50 (SK-MEL-28) was 32.4 µM (inactive) and the GI50 (SK-MEL-5) was 50.2 µM (inactive). The GI50 (HL-60) was 9.93 µM (inactive), the GI50 (SF-268) was > 100 µM (inactive) and the GI50 (MDA-MB-435) was 25.4 µM (inactive). For the same molecule, the GI50 (PC-3) was 90.6 µM (inactive), the GI50 (SF-539) was 81.8 µM (inactive) and the GI50 (NCI-H460) was 54.5 µM (inactive). The GI50 (DU-145) was 57.9 µM (inactive), the GI50 (EKVX) was > 100 µM (inactive) and the GI50 (HCT-116) was 80.5 µM (inactive). The GI50 (OVCAR-4) was 99.8 µM (inactive), the GI50 (CAKI-1) was 68.9 µM (inactive) and the GI50 (RXF 393) was 59.4 µM (inactive). For the same molecule, the GI50 (BT-549) was > 100 µM (inactive), the GI50 (M14) was 88.3 µM (inactive) and the GI50 (NCI-H226) was > 100 µM (inactive). For the same molecule, the GI50 (UO-31) was 87.9 µM (inactive), the GI50 (OVCAR-5) was > 100 µM (inactive) and the GI50 (OVCAR-3) was 80.2 µM (inactive). For the same molecule, the GI50 (Malme-3M) was 79.6 µM (inactive), the GI50 (KM12) was 62.8 µM (inactive) and the GI50 (K562) was 47.6 µM (inactive). For the same molecule, the GI50 (NCI/ADR-RES) was > 100 µM (inactive), the GI50 (SNB-19) was > 100 µM (inactive) and the GI50 (TK-10) was > 100 µM (inactive). For the same molecule, the GI50 (SN12C) was 65.8 µM (inactive), the GI50 (MDA-MB-231) was 38.4 µM (inactive) and the GI50 (HCC 2998) was 62.7 µM (inactive). For the same molecule, the GI50 (MCF7) was 46.8 µM (inactive), the GI50 (OVCAR-8) was > 100 µM (inactive) and the GI50 (SW-620) was 48.5 µM (inactive). For the same molecule, the GI50 (U-251) was > 100 µM (inactive), the GI50 (ACHN) was 28.2 µM (inactive) and the GI50 (UACC-62) was > 100 µM (inactive). The GI50 (HOP-92) was 43.3 µM (inactive), the GI50 (T47D) was 58.5 µM (inactive) and the GI50 (NCI-H23) was > 100 µM (inactive). For the same molecule, the GI50 (LOX IMVI) was 33.1 µM (inactive), the GI50 (SR) was 53.7 µM (inactive) and the GI50 (HT-29) was 73.8 µM (inactive). The GI50 (SK-MEL-2) was 73.8 µM (inactive).
For `COc1cc(C(C)=O)cc(C(=O)N(C(C)C)C(C)C)c1[Si](C)(C)C`, the GI50 (SNB-75) was 9.2 µM (inactive), the GI50 (MOLT-4) was 79.6 µM (inactive) and the GI50 (786-0) was > 100 µM (inactive). The GI50 (NCI-H522) was 34.8 µM (inactive), the GI50 (CCRF-CEM) was > 100 µM (inactive) and the GI50 (MDA-N) was > 100 µM (inactive). For the same molecule, the GI50 (COLO 205) was > 100 µM (inactive), the GI50 (IGROV-1) was > 100 µM (inactive) and the GI50 (HOP-62) was > 100 µM (inactive). The GI50 (HCT-15) was greater than 100 µM, the GI50 (UACC-257) was > 100 µM (inactive) and the GI50 (SF-295) was > 100 µM (inactive). For the same molecule, the GI50 (SK-MEL-28) was > 100 µM (inactive), the GI50 (SK-MEL-5) was > 100 µM (inactive) and the GI50 (HL-60) was 24.3 µM (inactive). For the same molecule, the GI50 (SF-268) was > 100 µM (inactive), the GI50 (MDA-MB-435) was > 100 µM (inactive) and the GI50 (PC-3) was > 100 µM (inactive). For the same molecule, the GI50 (SF-539) was > 100 µM (inactive), the GI50 (NCI-H460) was > 100 µM (inactive) and the GI50 (DU-145) was > 100 µM (inactive). The GI50 (HCT-116) was > 100 µM (inactive), the GI50 (OVCAR-4) was > 100 µM (inactive) and the GI50 (CAKI-1) was > 100 µM (inactive). The GI50 (BT-549) was > 100 µM (inactive), the GI50 (M14) was > 100 µM (inactive) and the GI50 (NCI-H226) was > 100 µM (inactive). For the same molecule, the GI50 (UO-31) was > 100 µM (inactive), the GI50 (OVCAR-3) was > 100 µM (inactive) and the GI50 (KM12) was > 100 µM (inactive). The GI50 (SNB-19) was > 100 µM (inactive), the GI50 (TK-10) was > 100 µM (inactive) and the GI50 (A549) was 67.8 µM (inactive). For the same molecule, the GI50 (MDA-MB-231) was > 100 µM (inactive), the GI50 (A498) was > 100 µM (inactive) and the GI50 (MCF7) was > 100 µM (inactive). For the same molecule, the GI50 (Hs-578T) was > 100 µM (inactive), the GI50 (OVCAR-8) was > 100 µM (inactive) and the GI50 (SW-620) was > 100 µM (inactive). For the same molecule, the GI50 (U-251) was > 100 µM (inactive), the GI50 (ACHN) was > 100 µM (inactive) and the GI50 (UACC-62) was > 100 µM (inactive). For the same molecule, the GI50 (HOP-92) was 99.3 µM (inactive), the GI50 (T47D) was > 100 µM (inactive) and the GI50 (NCI-H23) was 52.8 µM (inactive). For the same molecule, the GI50 (LOX IMVI) was > 100 µM (inactive), the GI50 (SK-OV-3) was 28.9 µM (inactive) and the GI50 (SK-MEL-2) was > 100 µM (inactive).
